Data reported in PubChem BioAssay AID463229 (Broad Institute, 2010).
Activity calls are given as the source filed them.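 The calls were made as follows: active = compounds raising the signal whose fitted half-maximal concentration is at or below their top tested dose (cut at about 25 µM in these data); inconclusive = flat fit at 30 to 70% activity, or a poor fit; inactive = the rest.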

The compounds below were run on INS-1E rat beta cells, no cytokines, CellTiter-Glo ATP, 48 h (assay: cytokine-free beta-cell viability effect – INS-1E rat cells, ATP luminescence, cherry pick, counter-screen for beta-cell apoptosis protection project, dose response (AID 463229)).

Row | Structure (SMILES) | AC50
1 | O=S(=O)(C/C(=C/CO)S(=O)(=O)c1ccccc1)c1ccccc1 | 10.9 µM
2 | O=C1C=C(Nc2ccc(O)cc2)C(=O)c2ccccc21 | 13.6 µM
3 | Cc1cc(N)c2cc(NC(=O)/C=C/c3ccccc3Cl)ccc2n1 | 14.2 µM
4 | CCc1ccc(S(=O)(=O)/N=C2\C=C(Nc3ccc(O)cc3)C(=O)c3ccccc32)cc1 | 2.21 µM
5 | Cc1ccc(NC(=S)N/N=C/c2ccc([N+](=O)[O-])s2)cc1 | 6.79 µM
6 | Cc1cc(-c2ccccc2)cc(C)[n+]1Cc1ccccc1 | 0.667 µM
7 | CCc1c(C2(O)CCCCC2)[nH]c2cc(C(F)(F)F)ccc12 | 11 µM
8 | O=C(Cc1ccc(Cl)cc1)c1c[nH]c(C(=O)NCc2cccnc2)c1 | 0.665 µM
9 | Cc1oc2c(c1C(=O)c1ccccc1)C(=O)C(=O)c1ccccc1-2 | 3.52 µM
10 | O=C(OCn1ncc(Br)c(Br)c1=O)c1ccccc1Cl | 4.55 µM
11 | Cc1ccccc1CNc1ccc(C(CC(N)=O)NC(=O)c2ccc(Br)cc2)cc1[N+](=O)[O-] (stereo unspecified) | 15.7 µM
12 | Cc1nc(C(=O)NNC(=O)c2c(-c3c(Cl)cccc3Cl)noc2C)cs1 | 19.9 µM
13 | Cc1ccc2nc(NC(=O)c3ccccn3)sc2c1 | 9.36 µM
14 | O=C(c1cc(-c2cccc(O)c2)on1)N1CCN(C(c2ccccc2)c2ccccc2)CC1 | 14.4 µM
15 | Oc1ccc2ccccc2c1/C=N/Nc1nnc(-c2ncc[nH]2)c2ccccc12 | 3.39 µM
16 | CCOC(=O)C1=C(c2ccc(OC)cc2)C(=O)c2ccccc2C1=O | 3.83 µM
17 | C=C1C(=O)O[C@H]2C[C@@H](C)[C@@H]3C=CC(=O)[C@@]3(C)C[C@H]12 | 7.64 µM
18 | O=C(COC(=O)c1cn(-c2ccccc2)nc1-c1ccccc1)c1cccc([N+](=O)[O-])c1 | 2.8 µM
19 | CC1Cc2cc(S(=O)(=O)N3CCC(C(=O)N4CCN(c5ccccc5F)CC4)CC3)ccc2N1C(=O)C1CC1 (stereo unspecified) | 8 µM
20 | NS(=O)(=O)c1ccc(N/N=C2/CCCCC2C2CCCCC2)c([N+](=O)[O-])c1 (stereo unspecified) | 8.1 µM
21 | O=C(NNC(=O)C12CC3CC(CC(C3)C1)C2)c1ccccn1 | 12.7 µM
22 | CC(=O)c1ccc(NC(=S)NCc2cccnc2)cc1 | 5.53 µM

Row | Structure (SMILES) | AC50
23 | Cc1cc([N+](=O)[O-])nn1Cc1ccc(C(=O)N/N=C/c2ccc(O)cc2O)cc1 | 6.27 µM
24 | CCCCCCCCn1c(=O)c(C(=O)OC)c(N)c2ccccc21 | 4.89 µM
25 | Cc1ccc2[nH]cc(/C=C/c3cc[n+](C)cc3)c2c1 | 5.46 µM
26 | O=C(Nc1nc2ccccc2[nH]1)c1ccccc1F | 2.14 µM
27 | COc1ccc(C(=O)NN/C(C)=C/C(=O)C(F)(F)C(F)(F)C(F)(F)F)cc1 | > 26 µM (inactive)
28 | Cc1nc(C)c(-c2csc(NCCc3ccccc3)n2)s1 | 24.1 µM
29 | O=C(Nc1ccc(Cl)cc1)Nc1ccc(N2CCCC2)c(S(=O)(=O)Nc2ccccc2Cl)c1 | 7.12 µM
30 | Cc1ccccc1-[n+]1c(-c2ccccc2)cc(-c2ccccc2)cc1-c1ccccc1 | 2.2 µM
31 | Nc1nonc1-n1nnc(C(=O)N/N=C/c2cc(Br)ccc2O)c1CSC1=NCCS1 | 3.58 µM
32 | CCN(CC)CCn1c2ccccc2c2cnc(N)c(C#N)c21 | 14.3 µM
33 | O=C(NCc1nc(-c2ccc(C(F)(F)F)cc2)no1)Nc1cc(Cl)cc(Cl)c1 | 6.94 µM
34 | Cc1cc(C)cc(Oc2cc(NC(=O)c3cn(C)nc3C)cc([N+](=O)[O-])c2)c1 | 2.58 µM
35 | CC(=O)Nc1ccc(NC2=C/C(=N/S(=O)(=O)c3cccs3)c3ccccc3C2=O)cc1 | 7.66 µM
36 | COc1ccc(Nc2nc(N3CCCC3)c3ccccc3n2)cc1 | 9.85 µM
37 | CCCCCCCCn1c2c(c(=N)c3c1CCC3)CCCC2 | < 0.195 µM
38 | CCOc1cc(/C=C2\CCC/C(=C\c3cc(Cl)c(O)c(OCC)c3)C2=O)cc(Cl)c1O | 7.28 µM
39 | CCCCCn1c(=O)c(C(=O)NC(C)c2ccccc2)c(O)c2ccccc21 (stereo unspecified) | 4.19 µM
40 | C/C(=N/NC(=O)c1ccc(C(C)(C)C)cc1)c1ccccn1 | 2.1 µM
41 | Cc1ccc(C)c(-c2csc(NC(=O)C3=COCCO3)n2)c1 | 7.67 µM
42 | Cc1csc2ncnc(N3CCN(S(=O)(=O)c4cccc(C(F)(F)F)c4)CC3)c12 | 5.81 µM
43 | Cc1ccc2nc(/C(C#N)=C\c3ccc([N+](=O)[O-])o3)[nH]c2c1 | 2.96 µM
44 | CC(=O)c1ccc(OCc2cc(C(=O)N3CCCCC3c3cccnc3)no2)cc1 (stereo unspecified) | 22.4 µM

Row | Structure (SMILES) | AC50
45 | CCCOc1ccc(CSc2nc3ccccc3[nH]2)cc1 | 5.41 µM
46 | Oc1ccc(N=Nc2nccs2)c(O)c1 | 6.64 µM
47 | CN1/C(=C\C(=O)CN2C(=O)NC3(CCCCCC3)C2=O)C(C)(C)c2ccccc21 | 7.99 µM
48 | CC(=O)Nc1ccc(NC(=O)CN(c2cccc([N+](=O)[O-])c2)S(C)(=O)=O)cc1 | 6.49 µM
49 | CC(CC(=O)N1CCN(c2cccc(Cl)c2)CC1)S(=O)(=O)c1ccc2c(c1)NC(=O)CO2 (stereo unspecified) | 7.1 µM
50 | c1ccc(CNc2c3ccccc3nc3ccccc23)cc1 | 11.5 µM
51 | Cc1ccc(C)c(S(=O)(=O)N2CCN(c3ncnc4sccc34)CC2)c1 | 4.53 µM
52 | Cc1ccc(-n2ncc3c2CCCC3NC(=O)c2ocnc2C)cc1C (stereo unspecified) | 6.97 µM
53 | CC(Oc1ccc(Cl)cc1Cl)c1nc(-c2ccc(NC(=O)c3cccnc3)cc2)no1 (stereo unspecified) | 0.906 µM
54 | N#CCC(=O)N/N=C/c1cc(-c2ccccc2)n(-c2ccc(Cl)cc2)c1-c1ccccc1 | 2.29 µM
55 | Oc1ccccc1/C=N/Nc1nc2ccccc2o1 | 4.62 µM
56 | Cc1nc2ccccc2c2oc(C(=O)Nc3ccc(C(C)C)cc3)cc12 | 21.6 µM
57 | O=C(NCCOCCOCCNC(=O)c1cccnc1)c1cccnc1 | 3.83 µM
58 | O=C(Nc1ccc(OC(F)(F)F)cc1)Nc1cccc([N+](=O)[O-])c1 | 3.8 µM
59 | CC(C)c1ccc2c(c1)C(N1CCNCC1)Cc1ccc(F)cc1S2 (stereo unspecified) | 14.6 µM
60 | O=C(Nc1ccc(OCC(=O)N2CCC(Cc3ccccc3)CC2)cc1)c1ccco1 | 7 µM
61 | CCC(Sc1nc(C)cc(C)n1)C(=O)NC1=NN=C(c2ccc(C)cc2)CS1 (stereo unspecified) | 2.14 µM
62 | CCOc1ccc(-n2c(O)c(/C=N/Nc3nc(C)cc(C)n3)c3ccccc3c2=O)cc1 | 6.38 µM
63 | Cc1nc(N2CCN(C(=O)c3ccco3)CC2)c2c3c(sc2n1)CC(C)CC3 (stereo unspecified) | 5.51 µM
64 | CCCCCCCCCCCCCCCC[N+](C)(C)C | 7.81 µM
65 | CCN(CC)c1ccc(/C=N/NC(=O)c2cnccn2)c(O)c1 | 2.01 µM
66 | Fc1ccc(C[n+]2c(-c3ccccc3)cc(-c3ccccc3)cc2-c2ccccc2)cc1 | 3.99 µM

Row | Structure (SMILES) | AC50
67 | Cc1sc2ncnc(NCC3COc4ccccc4O3)c2c1C (stereo unspecified) | 2.34 µM
68 | Cc1ccc(-c2nc(C(Cl)Cl)c3ccccc3n2)cc1 | 3.51 µM
69 | C#CCOCCOCCOCCNc1nc(N2CCN(C(=O)CCCCCCCCCCNC(=O)[C@H](CCCCN)n3cc(C[C@@H](C)CC)nn3)CC2)nc(N2CCN(C(=O)CCCCCCCCCCNC(=O)[C@@H]([C@H](C)O)n3cc(C)nn3)CC2)n1 | 6.91 µM
70 | C=CC[n+]1c(-c2ccc(OCC)cc2)csc1NNC(=O)Nc1ccccc1 | 12.1 µM
71 | CCOC(=O)c1c(C)[nH]c(C(=O)N/N=C\c2ccccc2O)c1C | 6.52 µM
72 | C=C1C(=O)O[C@@H]2C[C@@H](C)[C@@H]3C=CC(=O)[C@@]3(C)[C@@H](O)[C@H]12 | 2.02 µM
73 | Cc1ccc(C(=O)Nc2nc(-c3ccccn3)cs2)cc1S(=O)(=O)N1CCOCC1 | 6.47 µM
74 | O=C(Nc1ccc(F)cc1)Nc1cc(OCC(F)(F)F)cc(OCC(F)(F)F)c1 | 2.25 µM
75 | CCN(CC)S(=O)(=O)c1ccc(N2CCN(c3ccccc3OC)CC2)c(N)c1 | 5.19 µM
76 | COc1cc(SC#N)ccc1N=Cc1c(C)[nH]n(-c2ccc(C)cc2)c1=O | 8.46 µM
77 | CC(=O)N1c2ccc(S(=O)(=O)N3CCC(C(=O)N4CCN(c5cccc(C(F)(F)F)c5)CC4)CC3)cc2CC1C (stereo unspecified) | 5.82 µM
78 | CC(=O)NC(c1cc(Cl)c2cccnc2c1O)C1CC1 (stereo unspecified) | 7.49 µM
79 | COc1ccc(/C=N/Nc2cc(C)nc(-n3nc(C)cc3C)n2)cc1 | 16.1 µM
80 | CCCCNc1c(-c2ccc(-c3cccc(Cl)c3)cc2)nc2ccccn12 | 5.83 µM
81 | O=C(NCc1ccccc1)C1=C[C@H](c2csc3ccccc23)C[C@H](OCCCCO)O1 | 6.75 µM
82 | COc1cccc(/C=N/NC(=O)c2ccc(-c3ccccc3)cc2)c1O | 13.1 µM
83 | O=C(COc1ccc([N+](=O)[O-])cc1)Nc1ccc(C(=O)NCc2cccnc2)cc1 | 0.369 µM
84 | CCOc1cc(/C=C2\COc3ccccc3C2=O)cc(Br)c1OCC(=O)N(C)C | 11.1 µM
85 | Cc1nc2ccc(NC(=O)c3cc(S(=O)(=O)N(C)c4ccccc4)ccc3Cl)cc2s1 | 2.8 µM
86 | Cc1c(N/N=C(\C#N)C(=O)c2ccc(Cl)cc2)c(=O)n(-c2ccccc2)n1C | 5.35 µM
87 | CN(C)CCNC(=O)/C(=C/c1ccc(-c2ccc(Cl)cc2Cl)o1)NC(=O)c1ccccc1 | 9.44 µM
88 | CC(C)[C@H]1C(=O)O[C@H](C(C)C)C(=O)N(C)[C@@H](C(C)C)C(=O)O[C@H](C(C)C)C(=O)N(C)[C@@H](C(C)C)C(=O)O[C@H](C(C)C)C(=O)N1C | 3.8 µM

Row | Structure (SMILES) | AC50
89 | CC(C)Cn1c(N)c(C(=O)CSc2ccc3c(c2)OCCO3)c(=O)n(C)c1=O | 4.85 µM
90 | O=C1C=C(N2CCCCC2)c2ccccc2C1=O | 10.6 µM
91 | CCOc1cc(/C=N/NC(=O)c2cc(-c3cccc(OC)c3)nc3ccccc23)ccc1O | 6.59 µM
92 | CC(=O)Nc1sc2c(c1-c1nc3ccccc3s1)CN(C(C)C)CC2 | 3.79 µM
93 | CCOc1cc(S(=O)(=O)NCc2ccncc2)ccc1Cl | 1.19 µM
94 | Cc1ccc(S(=O)(=O)/N=C2\C=C(Nc3cccc(C(=O)O)c3)C(=O)c3ccccc32)c(C)c1 | 7.81 µM
95 | CCCCCc1cc(=O)oc2c(C(CCN3CCCC(C)C3)c3cc(OC)c(OC)c(OC)c3)c(OC)cc(OC)c12 (stereo unspecified) | 14 µM
96 | COc1ccc(C(=O)NCC(=O)N/N=C/c2ccc([N+](=O)[O-])s2)cc1OC | 13.5 µM
97 | O=C(CCC(=O)Nc1ccc(Cl)cc1Cl)N/N=C/c1ccc([N+](=O)[O-])o1 | 13.8 µM
98 | Cc1ccc2nc(-c3ccccn3)c(NC3CCCC3)n2c1 | 16.6 µM
99 | Cc1ccc(C#CC[N+]2(CC#Cc3ccc(C)cc3)CCCCC2)cc1 | 3.33 µM
100 | COc1cccc(C(=O)N/N=C(/c2ccccc2)c2ccccn2)c1 | 3.73 µM
101 | CCCCNc1cc(C)nc(NCc2ccccc2)n1 | 8.1 µM
102 | CCCCCn1c(=O)c(C(=O)NCc2ccccc2Cl)c(O)c2ccccc21 | 6.84 µM
103 | Cn1c(=O)[nH]c(=O)c2c1nc([N+](=O)[O-])n2Cc1ccccc1 | 6.67 µM
104 | Clc1ccc(OCCN2CCN(c3ncnc4sccc34)CC2)cc1 | 0.726 µM
105 | CC(=O)c1c(C)[nH]c(C(=O)OCC(=O)Nc2ccc(C)cc2[N+](=O)[O-])c1C | 1.6 µM
106 | COc1cccc(/C=N/Nc2nc(Nc3ccccc3)nc(-n3nc(C)cc3C)n2)c1O | 12.3 µM
